Tests used:
[1] = system: USA300 MRSA; assay: Implant model of infection with USA300 MRSA; format: in vivo; conditions: C57B mice, 10^6 CFU USA300, implant model, topical LPS or fMLP vs vancomycin 40 mg/kg i.p., 24 h, FIG. 2C
Protocol: The implant model of infection in C57B mice was used for 10^6 PA103 (FIG. 2A) or 10^6 USA300 MRSA (FIG. 2C). The wound model of infection was used for 10^6 PA103 in C57BL mice (FIG. 2B) or diabetic db/db mice (FIG. 2D). Infection was carried out at the time of surgery by adding bacteria directly to the surgical sites. Immunomodulators, namely, LPS (10 ng or 100 ng), fMLP (10 ng or 100 ng), CCL3 (1 μg) were added topically at the surgical sites at the time of surgery & infection. GM-CSF (10 μg/kg), tobramycin (Tob at 3.5 mg/kg), and vancomycin (40 mg/kg) were added systemically by i.p. injection 1 h before surgical implantation and infection. Infection levels were determined 24 h following infection (N>4 animals/group; NS=not significant, * p<0.01, ** p<0.001, ***p<0.0001 One-way ANOVA).
(15A) C57BL/6 mice received 40 mg/kg prophylaxis (Sys) vancomycin (Vanc) or 3.5 mg/kg tobramycin (Tobra) by i.p. injection. (15A) 1 h after antibiotic administration, 106 CFU of USA300 was added to implant after insertion into facia (Implant Model). (15B) 1 h after antibiotic administration, 10^6CFU of USA300 or 106CFU PA103 (Pa) were added full-thickness wounds in of C57BL/6 (Wound Model). Infection levels at implant surgical site (Tissue & Implant) or a distant site (Spleen), or wound tissues were assessed 24 h following infection. (N>4 animals/group, * p<0.01, ***p<0.0001, One-way ANOVA).
We assessed these immunomodulators for their ability to control wound and/or implant SS's in normal (C57BL/6) or diabetic (db/db) mice. We acknowledge that diabetic individuals are not as immunocompromised as other immunocompromised patient groups. […] All immunomodulators were added locally at the surgical sites at the time of infection, except GM-CSF (10 μg/kg) which was administered systemically by i.p. injection 1 h prior to surgery per its FDA-approved route of delivery. […] CCL3 and GM-CSF are also tested using the implant model of infection. Here, we tested CCL3 and GM-CSF in the wound model of infection in C57B mice.
(§1) Implant surgery and wound surgery and surgical site infection are performed according to the following method. On the day of surgery, all mice are anesthetized by an intraperitoneal injection of a ketamine/xylazine mixture (90 mg/kg ketamine+5 mg/kg xylazine for mice). The back of the animals is shaved using an electric shave and scrubbed with alcohol swabs 3 times, a topical antiseptic solution (Hibiclens; chlorhexidine gluconate) is applied to the skin. The surgical procedures are performed with sterile instruments, sterile surgical gloves, and aseptic techniques as follows. For wound surgical procedure, a sterile biopsy punch (5-7 mm diameter) is used to punch through the full thickness of the back skin below the shoulder blades. […]

[2] = system: S. aureus; assay: S. aureus surgical site infection, implant model; format: in vivo; conditions: S. aureus 10^6 CFU, titers after 1 day, compared to PBS, FIGS. 5A and 5B
Excerpt: FIGS. 5A and 5B illustrate that PAMPs are effective in controlling S. aureus surgical site infection as prophylactic antibiotic standard therapy. S. aureus (10^6 CFU). S. aureus titers after 1 day. Significance determined as compared to PBS *<0.05, **p<0.01, ***p<0.001, ****p<0.0001.
We next examined the impact of CCL3 topical treatment on leukocyte migration by H&E staining, and on leukocyte activation by myeloperoxidase (MPO) measurements by ELISA. (MPO is primarily used as a marker for neutrophil activation but it can also be expressed to lesser extent in macrophages).
as §1, with “blades. Four 5-7 mm skin wounds are made on the back of each mouse.” for “blades.”

Compound | controlling USA300 MRSA infection, compared with prophylaxis vancomycin [1] | infection control in the implant model against S. aureus [2]
CSCC[C@H](NC=O)C(=O)N[C@@H](CC(C)C)C(=O)N[C@@H](Cc1ccccc1)C(=O)O [fMLP, N-Formylmethionyl-leucyl-phenylalanine] | as effective (if not more) | improved
lipopolysaccharide [LPS] | as effective (if not more) | improved

— patent US20210268070A1, “Use of Immunomodulators to Control Infection and Stimulate Healing in Normal and Diabetic Wounds” (priority 2018, published 2021)
